According to ChEMBL document CHEMBL1201862, “PubChem BioAssay data set” (2004):
The source made the active and inactive calls.

Tests used:
Leucine aminopeptidase = molecular target: T1, Leucine aminopeptidase (Plasmodium falciparum 3D7, UniProt Q8IL11); assay: P. falciparum M17LAP inhibitors, primary screen, biochemical, fluorogenic H-Leu-NHMec substrate, 1536-well (AID 1619); assay type: functional
T1 sequence (Q8IL11 whole entry): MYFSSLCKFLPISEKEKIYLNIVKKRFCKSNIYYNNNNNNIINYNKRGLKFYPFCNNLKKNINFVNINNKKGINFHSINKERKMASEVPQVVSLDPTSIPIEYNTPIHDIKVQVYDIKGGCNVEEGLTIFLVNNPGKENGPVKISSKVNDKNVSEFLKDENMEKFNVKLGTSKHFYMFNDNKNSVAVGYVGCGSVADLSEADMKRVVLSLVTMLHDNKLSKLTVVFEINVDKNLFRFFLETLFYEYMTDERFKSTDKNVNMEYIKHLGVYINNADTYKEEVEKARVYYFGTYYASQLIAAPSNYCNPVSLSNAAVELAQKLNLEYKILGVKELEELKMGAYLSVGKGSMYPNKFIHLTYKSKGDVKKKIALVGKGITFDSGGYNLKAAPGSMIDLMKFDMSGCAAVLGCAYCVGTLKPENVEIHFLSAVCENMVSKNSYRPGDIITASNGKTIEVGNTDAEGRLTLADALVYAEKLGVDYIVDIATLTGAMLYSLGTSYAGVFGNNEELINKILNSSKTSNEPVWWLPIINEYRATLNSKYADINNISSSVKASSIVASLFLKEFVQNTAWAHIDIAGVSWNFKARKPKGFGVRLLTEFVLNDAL

[1] = molecular target: T2, Polyadenylate-binding protein 1 (Homo sapiens, UniProt P11940); assay: PABP1 MLLE–PAM2 interaction inhibitors, dose response, miRNA deadenylation inhibitor project, biochemical, fluorescence polarization, Cy5-PAM2 peptide, secondary (AID 602260); assay type: functional; details: read-out: IC50_Mean
[2] = molecular target: T2, Polyadenylate-binding protein 1; assay: PABP1 MLLE–PAM2 binding inhibitor potency, dose response, biochemical, fluorescence polarization, FITC-PAM2 peptide (AID 602259); assay type: functional; details: read-out: IC50_Mean
[3] = Luminescence Cell-Based Dose Confirmation HTS to Identify Activators of 5'UTR Stem-Loop Driven Alpha-Synuclein mRNA Translation in H4 Neuroglioblastoma Cells. [Related pubchem assays: 1829 (Project Summary), 1814 (Primary HTS)]; assay type: functional
[4] = Luminescence Cell-Based Dose Response HTS to Identify Activators of Luciferase Translation or Activity in H4 […] Cells. [Related pubchem assays: 1829 (Project Summary), 1814 (Primary HTS)]; assay type: functional
H4 = assay: Luminescence Cell-Based Dose Response HTS to Identify Activators of 5'UTR Stem-Loop Driven Prion Protein mRNA Translation in H4 Neuroglioblastoma Cells. [Related pubchem assays: 1829 (Project Summary), 1814 (Primary HTS)]; assay type: functional; details: Homo sapiens
[5] = inhibitors of intracellular T. cruzi replication, confirmation, NIH3T3 host cells, beta-gal luminescence (AID 2044); assay type: functional, cell-based;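 note: intracellular parasites grown in NIH/3T3 mouse fibroblasts as host cells; luminescent beta-galactosidase reporter signal from transgenic T. cruzi replicating inside host cells; inhibitors lower the luminescence signal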
[6] = cytotoxicity toward NIH3T3 fibroblasts, dose response, counter-screen, cell-based, ATP luminescence, mouse fibroblasts (AID 2010); assay type: functional;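 note: cells exposed to compound for about 90 hours before reading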
[7] = molecular target: T3, Replicative DNA helicase DnaB (Mycobacterium tuberculosis, UniProt P9WMR3); assay: DnaB intein splicing inhibitors, dose response, biochemical, cell-free fluorescence (AID 449749); assay type: functional
T3 sequence (P9WMR3 whole entry): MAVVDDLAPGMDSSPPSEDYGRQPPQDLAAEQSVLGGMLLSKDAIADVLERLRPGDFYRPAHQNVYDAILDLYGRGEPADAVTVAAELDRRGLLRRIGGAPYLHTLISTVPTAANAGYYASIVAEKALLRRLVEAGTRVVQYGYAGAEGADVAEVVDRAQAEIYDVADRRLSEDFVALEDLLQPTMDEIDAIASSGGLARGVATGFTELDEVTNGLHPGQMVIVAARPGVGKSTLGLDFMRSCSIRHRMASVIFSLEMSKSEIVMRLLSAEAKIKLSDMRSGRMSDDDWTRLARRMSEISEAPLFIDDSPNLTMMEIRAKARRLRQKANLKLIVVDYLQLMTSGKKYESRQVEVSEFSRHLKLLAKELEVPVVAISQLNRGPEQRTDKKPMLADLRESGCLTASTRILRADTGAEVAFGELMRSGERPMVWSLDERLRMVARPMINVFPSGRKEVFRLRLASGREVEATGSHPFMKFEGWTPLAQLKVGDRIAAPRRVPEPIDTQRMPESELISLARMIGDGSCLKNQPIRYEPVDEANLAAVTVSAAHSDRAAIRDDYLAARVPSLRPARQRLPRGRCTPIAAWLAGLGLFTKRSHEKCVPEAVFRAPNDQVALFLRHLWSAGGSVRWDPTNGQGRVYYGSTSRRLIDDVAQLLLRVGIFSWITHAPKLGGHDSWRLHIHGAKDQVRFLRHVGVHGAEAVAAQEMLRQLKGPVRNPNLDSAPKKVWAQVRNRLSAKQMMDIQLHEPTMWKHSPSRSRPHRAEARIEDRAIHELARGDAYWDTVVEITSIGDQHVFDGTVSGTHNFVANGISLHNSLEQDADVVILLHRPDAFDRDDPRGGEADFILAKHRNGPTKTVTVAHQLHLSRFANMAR

Protein RecA = molecular target: T4, Protein RecA (Mycobacterium tuberculosis, UniProt P9WHJ3); assay: Fluorescence Cell-Free Homogeneous Dose Retest to Identify Inhibitors of RecA-Intein Splicing Activity. [Related pubchem assays (depositor defined):AID2097, AID2223, AID489010, AID492950]; assay type: functional
T4 sequence (P9WHJ3 whole entry): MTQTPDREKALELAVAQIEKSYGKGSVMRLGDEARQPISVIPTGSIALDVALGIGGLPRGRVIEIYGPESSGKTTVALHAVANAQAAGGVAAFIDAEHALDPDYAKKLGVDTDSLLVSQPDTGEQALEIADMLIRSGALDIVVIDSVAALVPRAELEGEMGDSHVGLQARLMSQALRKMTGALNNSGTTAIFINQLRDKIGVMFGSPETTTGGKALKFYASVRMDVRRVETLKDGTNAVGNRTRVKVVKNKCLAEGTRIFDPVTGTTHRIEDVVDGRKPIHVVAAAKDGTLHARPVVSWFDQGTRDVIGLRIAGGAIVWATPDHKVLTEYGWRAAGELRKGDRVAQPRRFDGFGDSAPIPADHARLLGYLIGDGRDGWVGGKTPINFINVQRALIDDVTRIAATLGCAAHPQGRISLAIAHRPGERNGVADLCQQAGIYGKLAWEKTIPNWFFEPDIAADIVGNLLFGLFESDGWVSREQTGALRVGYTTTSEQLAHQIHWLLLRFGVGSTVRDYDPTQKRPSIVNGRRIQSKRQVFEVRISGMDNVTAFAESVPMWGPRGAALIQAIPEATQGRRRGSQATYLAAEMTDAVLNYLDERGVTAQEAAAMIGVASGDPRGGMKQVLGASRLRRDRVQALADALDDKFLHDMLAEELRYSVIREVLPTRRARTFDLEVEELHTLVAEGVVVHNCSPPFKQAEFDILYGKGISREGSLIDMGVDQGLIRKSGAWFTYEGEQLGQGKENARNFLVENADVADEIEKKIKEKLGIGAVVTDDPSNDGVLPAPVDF

Vero = assay: cells; assay type: functional; details: Chlorocebus sabaeus
[8] = molecular target: T5, RNA-binding protein pos-1 (Caenorhabditis elegans, UniProt G5EF15); assay: inhibitors of POS-1/mex-3 RNA binding, dose response, biochemical, fluorescence polarization (AID 1964);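 note: purified POS-1 fused to maltose binding protein made in E. coli; potency of compounds blocking POS-1 binding to fluorescent RNA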
T5 sequence (G5EF15 whole entry): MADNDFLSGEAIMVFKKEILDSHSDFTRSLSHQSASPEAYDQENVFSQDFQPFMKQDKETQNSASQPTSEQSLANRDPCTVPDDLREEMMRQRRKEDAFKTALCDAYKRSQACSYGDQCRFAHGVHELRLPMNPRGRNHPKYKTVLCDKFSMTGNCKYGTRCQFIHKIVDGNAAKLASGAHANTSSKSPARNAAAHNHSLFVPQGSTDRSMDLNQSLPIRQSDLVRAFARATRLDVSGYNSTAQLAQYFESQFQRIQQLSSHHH

[9] = molecular target: T6, Zinc finger protein mex-5 (Caenorhabditis elegans, UniProt Q9XUB2); assay: MEX-5/TCR-2 RNA interaction inhibitors, dose response, biochemical, C. elegans, fluorescence polarization (AID 1960)
T6 sequence (Q9XUB2 whole entry): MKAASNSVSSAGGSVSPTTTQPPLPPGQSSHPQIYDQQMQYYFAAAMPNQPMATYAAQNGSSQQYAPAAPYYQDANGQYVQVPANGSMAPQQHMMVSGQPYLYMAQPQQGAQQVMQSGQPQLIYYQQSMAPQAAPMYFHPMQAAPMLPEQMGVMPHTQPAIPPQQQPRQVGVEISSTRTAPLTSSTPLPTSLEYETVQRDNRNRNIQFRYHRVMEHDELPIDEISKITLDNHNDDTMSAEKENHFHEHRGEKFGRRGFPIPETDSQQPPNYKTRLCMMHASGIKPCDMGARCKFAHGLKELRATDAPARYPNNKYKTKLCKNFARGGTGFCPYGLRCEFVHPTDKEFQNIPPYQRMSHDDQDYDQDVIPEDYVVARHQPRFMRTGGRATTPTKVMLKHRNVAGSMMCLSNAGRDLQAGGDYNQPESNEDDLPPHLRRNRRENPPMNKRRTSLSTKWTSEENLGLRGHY

Cytochrome P450 2C19 = Cytochrome P450 2C19 (Homo sapiens, UniProt P33261); assay: Cytochrome panel assay with activity outcomes. Panel member name: p450-cyp2c19 Compounds with AC50 equal or less than 10 uM are considered active; assay type: functional; details: read-out: AC50
[10] = system: Streptococcus sp. 'group A'; assay: growth inhibition of control SK(-) GAS strain, dose response, counter-screen for streptokinase expression inhibitor project, luminescence, kanamycin, BacTiterGlo, confirmation (AID 1900); assay type: functional, organism-based
[11] = growth suppression of PTEN-null colon cells, dose response, cell-based, HCT116 PTEN knockout (AID 1047); assay type: functional;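 note: HCT116 colon tumor cells with PTEN knocked out; cells exposed to compound for 60 hours before readout; potency for loss of cell viability measured by luminescence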
[12] = growth suppression of beta-catenin-knockout colon cells, dose response, cell-based, HCT116, human colon tumor (AID 1045); assay type: functional;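 note: HCT116 colon tumor cells with beta catenin knocked out; cells exposed to compound for 60 hours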
Streptococcus = assay: Group A Streptococcus viability loss, dose response, counter-screen for streptokinase expression inhibitor project, luminescence, BacTiterGlo (AID 1915); assay type: functional, organism-based;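 note: potency for reduction of bacterial viability or growth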

T2 sequence (P11940 whole entry): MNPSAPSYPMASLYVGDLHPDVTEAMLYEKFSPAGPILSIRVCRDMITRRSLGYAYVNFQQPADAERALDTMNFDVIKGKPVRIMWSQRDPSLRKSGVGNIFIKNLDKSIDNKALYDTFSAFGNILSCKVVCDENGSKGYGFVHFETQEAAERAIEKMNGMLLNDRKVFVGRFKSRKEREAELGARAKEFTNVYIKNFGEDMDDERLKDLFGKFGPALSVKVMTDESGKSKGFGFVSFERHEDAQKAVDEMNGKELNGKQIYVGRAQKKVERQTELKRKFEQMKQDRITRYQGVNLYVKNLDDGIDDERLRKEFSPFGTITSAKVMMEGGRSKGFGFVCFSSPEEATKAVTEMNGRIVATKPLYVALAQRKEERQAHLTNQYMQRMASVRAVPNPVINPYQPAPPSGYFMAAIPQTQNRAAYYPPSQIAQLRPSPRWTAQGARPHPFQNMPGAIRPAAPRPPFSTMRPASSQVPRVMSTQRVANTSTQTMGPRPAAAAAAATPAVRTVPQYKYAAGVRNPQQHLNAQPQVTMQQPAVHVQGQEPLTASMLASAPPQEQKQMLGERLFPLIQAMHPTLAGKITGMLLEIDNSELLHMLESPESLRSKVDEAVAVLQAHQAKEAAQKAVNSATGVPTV
Cytochrome P450 2C19, sequence (P33261 whole entry): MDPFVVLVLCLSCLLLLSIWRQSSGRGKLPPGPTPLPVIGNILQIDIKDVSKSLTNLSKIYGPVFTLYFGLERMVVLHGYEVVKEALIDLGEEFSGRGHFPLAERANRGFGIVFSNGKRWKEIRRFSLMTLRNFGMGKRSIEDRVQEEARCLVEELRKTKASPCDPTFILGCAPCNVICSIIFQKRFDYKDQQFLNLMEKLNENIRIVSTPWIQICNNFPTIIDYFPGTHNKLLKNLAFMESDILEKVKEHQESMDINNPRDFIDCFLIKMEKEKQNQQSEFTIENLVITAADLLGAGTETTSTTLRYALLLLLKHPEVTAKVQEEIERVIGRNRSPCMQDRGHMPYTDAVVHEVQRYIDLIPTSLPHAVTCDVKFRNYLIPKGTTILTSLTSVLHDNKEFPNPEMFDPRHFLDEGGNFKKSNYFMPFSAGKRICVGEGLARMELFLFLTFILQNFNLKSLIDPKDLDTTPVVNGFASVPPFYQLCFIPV

| SMILES | IC50 (Leucine aminopeptidase) | IC50 [1] | IC50 [2] | also measured |
| --- | --- | --- | --- | --- |
| Cc1ccc(NC(=O)Cn2nc(C)c3ccccc3c2=O)cc1F | 14 µM (active) | – | – | – |
| COc1cc(C(=O)NC2=NCCS2)ccc1OCc1c(C)noc1C | – | > 66 µM (inactive) | > 66 µM (inactive) | – |
| O=C(CSC1=NCCS1)Nc1nc2ccccc2s1 | – | > 66 µM (inactive) | > 66 µM (inactive) | EC50 [3]: 15 µM (active); EC50 [4]: 12.5 µM (active); EC50 (H4): 9.16 µM (active) |
| COc1ccc(CNC(=O)CN(Cc2ccc(C)cc2)C(=O)c2csnn2)cc1 | – | > 66 µM (inactive) | > 66 µM (inactive) | – |
| NC(=NOC(=O)CSc1ccccc1)c1ccc([N+](=O)[O-])cc1 | – | > 66 µM (inactive) | > 66 µM (inactive) | EC50 [3]: 11.5 µM (active); EC50 [4]: 9.44 µM (active); EC50 (H4): > 120 µM (not active) |
| O=C(CSC1=Nc2ccccc2C2=NC(CC(=O)NCc3ccco3)C(=O)N12)NCc1ccco1 (configuration not stated) | – | > 66 µM (inactive) | > 66 µM (inactive) | – |
| Cc1ccc(Nc2cnn(C34CC5CC(CC(CC(=O)O)(C5)C3)C4)c(=O)c2Cl)c(Cl)c1 | 24.4 µM (active) | – | – | – |
| O=C(O)C1CSC(c2ccncc2)N1 (configuration not stated) | – | > 66 µM (inactive) | > 66 µM (inactive) | – |
| O=C(CCl)N(CCc1ccccc1)CCc1ccccc1 | – | – | – | EC50 [5]: 2.07 µM (active); EC50 [6]: > 30 µM (not active); AC50 [7]: 10 µM (active); EC50 (Protein RecA): 2.36 µM (active); CC50 (Vero): 8.89 µM (active) |
| Cc1cccn2c(=O)c3cc(C(=O)NCc4ccco4)c(=N)n(CCOCCO)c3nc12 | – | > 66 µM (inactive) | 15.2 µM (active) | – |
| CC(C)Sc1nc(-c2ccccc2)cc(=O)[nH]1 | 28.3 µM (active) | – | – | – |
| Cc1ccc(C)c(NC(=O)CSc2ncnc3nc[nH]c23)c1 | 50.8 µM (active) | – | – | – |
| COc1ccc(C2C(C#N)=C(N)OC3=C2C(=O)CC(C)(C)C3)c([N+](=O)[O-])c1OC (configuration not stated) | – | > 66 µM (inactive) | > 66 µM (inactive) | EC50 [8]: > 300 µM (not active); EC50 [9]: > 300 µM (not active); AC50 (Cytochrome P450 2C19): 14.1 µM (inconclusive) |
| CCCc1n[nH]c2c1C(CCc1ccccc1)C(C#N)=C(N)O2 (configuration not stated) | 55.7 µM (active) | – | – | AC50 [7]: 6.33 µM (active); EC50 (Protein RecA): 7.93 µM (active) |
| O=C(NCc1ccco1)C(=O)c1cn(CC(=O)N2CCCC2)c2ccccc12 | 73.3 µM (active) | – | – | – |
| COc1cc(NS(=O)(=O)c2ccc(NC(=O)CSC3=NCCS3)cc2)nc(OC)n1 | 2.12 µM (active) | – | – | – |
| CC1(C)Cc2c(c(-c3ccco3)[nH]c(=O)c2C#N)CS1 | – | > 66 µM (inactive) | 26 µM (inactive) | – |
| Cc1ccccc1SCC(=O)NC1CCOC1=O (configuration not stated) | – | > 66 µM (inactive) | > 66 µM (inactive) | – |
| Cc1cccc(-c2nnc(NC(=O)c3ccc(Cl)cc3)o2)c1 | – | – | – | EC50 [10]: 99 nM (active); EC50 [11]: 23.1 µM (active); EC50 [12]: 17.4 µM (active); EC50 (Streptococcus): 810 nM (active); CC50 (Vero): > 25 µM (active) |
| Cc1ccc2ncccc2c1NC(=S)NC(=O)c1ccccc1 | – | > 66 µM (inactive) | > 66 µM (inactive) | – |
| Cn1c(CCC(=O)O)nc2cc(S(=O)(=O)N3CCCCC3)ccc21 | – | > 66 µM (inactive) | > 66 µM (inactive) | – |
| O=C(O)c1cccc(Cn2c(Cl)c(/C=N/NC(=O)c3ccccc3)sc2=O)c1 | 20.8 µM (active) | – | – | – |
| CCc1c(O)nc(SCC(=O)Nc2ccccc2)n(C(C)CC)c1=O (configuration not stated) | 17.8 µM (active) | > 66 µM (inactive) | > 66 µM (inactive) | – |
| COc1ccc(C(=O)/C=C/c2ccccc2)c(OC)c1 | – | – | – | CC50 (Vero): 12.4 µM (active) |
